Results taken from paper PMC10285260, “Processive kinetics in the three-step lanosterol 14α-demethylation reaction catalyzed by human cytochrome P450 51A1” (The Journal of Biological Chemistry, 2023).
Where “and” joins values, the source holds several entries; their conditions need not be identical. Equal entries are not always repeated.

Key:
human P450 51A1 [1] = molecular target: T1, human P450 51A1 (Homo sapiens, UniProt Q16850); experiment: Steady-state LC-UV assay of sterol oxidation to dihydro FF-MAS by reconstituted P450 51A1; settings: for kcat relative to dihydrolanosterol / kcat/Km relative to dihydrolanosterol: oxidation to dihydro FF-MAS
T1 sequence (Q16850 1-509): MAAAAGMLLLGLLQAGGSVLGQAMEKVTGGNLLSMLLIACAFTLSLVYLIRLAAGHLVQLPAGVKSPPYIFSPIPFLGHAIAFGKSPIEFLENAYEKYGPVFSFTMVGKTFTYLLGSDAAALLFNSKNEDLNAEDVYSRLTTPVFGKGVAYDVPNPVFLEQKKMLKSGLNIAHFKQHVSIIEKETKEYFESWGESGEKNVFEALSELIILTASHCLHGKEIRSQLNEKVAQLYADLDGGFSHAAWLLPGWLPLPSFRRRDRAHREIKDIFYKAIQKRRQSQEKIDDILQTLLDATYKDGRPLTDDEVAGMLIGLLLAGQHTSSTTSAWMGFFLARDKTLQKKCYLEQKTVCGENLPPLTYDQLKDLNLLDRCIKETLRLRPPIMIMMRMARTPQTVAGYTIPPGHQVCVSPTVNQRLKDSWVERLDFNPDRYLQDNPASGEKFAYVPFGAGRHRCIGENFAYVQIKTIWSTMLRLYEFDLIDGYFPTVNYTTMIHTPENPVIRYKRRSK
Protocol: Steady-state incubations (500 μl) were generally done at 37 °C with 0.025 μM P450 51A1, 0.10 μM NADPH-P450 reductase, 100 μM L-α-dilauroyl-sn-glycero-3-phosphocholine, 50 mM potassium phosphate buffer (pH 7.4), 10% (v/v) glycerol, and an indicated concentration of each sterol (in 45% (w/v) HPCD). […] The sterols (stored at 4 °C) were prepared as described above and were heated to 37 °C and sonicated prior to use. Sterol working stocks were diluted in HPCD to ensure a constant concentration of cyclodextrin in each reaction. […] Accordingly, all reactions were done with this concentration of glycerol.
Reactions were preincubated (5 min, 37 °C) prior to initiation with an NADPH-regenerating system (0.5 mM NADP^+, 10 mM glucose 6-phosphate, and 2 μg ml^−1 glucose 6-phosphate dehydrogenase) ([60]) and were stopped after 5 min with the addition of CH2Cl2 (5 ml). (The NADPH-generating system, in addition to lower cost than NADPH, drives the reaction to avoid inhibition of the reductase by accumulated NADP^+). For the 14α-aldehyde, the times of preincubation and reaction were reduced (to 2 min and 1 min, respectively). The quenched mixture was centrifuged (2000g, 5 min), and 4 ml of the bottom (organic) layer was transferred to vials and brought to dryness under a stream of N2 gas. The dried residue was resuspended in CH3OH (100 μl) and was analyzed by UPLC using a 2.1 mm × 100 mm (1.7 μm) octadecylsilane (C18) column (held at 25 °C) and a Waters Acquity UPLC system. Samples (4 °C) were injected (10 μl) at a flow rate of 0.20 ml min^−1 using an isocratic mobile phase of CH3CN (only). The product (FF-MAS) was detected using a Waters Acquity photodiode array detector set at 250 nm (Fig. 4B). Data were processed using the MassLynx software (http://www.waters.com/waters/en_US/MassLynx-Mass-Spectrometry-Software-/nav.htm?cid=513164&locale=en_US), and the amount of product formed was calculated by comparison to a twelve-point dihydro FF-MAS standard curve. Determination of kcat and Km for each reaction was carried out by fitting the data to a Michaelis–Menten hyperbola, which was done using GraphPad Prism.
Incubations were run in triplicate, and the mean values (±SD) were calculated and plotted. The linear regression fits include the Prism error estimates for internal fitting (SE).

human P450 51A1 [2] = molecular target: T1, human P450 51A1; experiment: Single-turnover rapid-quench kinetics of [3-3H]-dihydrolanosterol oxidation (radio-HPLC); format: biochemical; parameters: made in house; host or cells: Escherichia coli
Protocol: All products were separated and quantified by radio-HPLC (Fig. S24).
Samples (held at 4 °C) were injected (45 μl) onto a Nova-Pak 3.9 mm × 150 mm (4 μm) octadecylsilane (C18) HPLC column (held at 23 °C). The products were separated at a flow rate of 1.0 ml min^−1 using an isocratic mobile phase composed of CH3CN (only) as was done for the LC-UV assays (above). The eluate from the column was mixed (1:2, v-v) with FlowLogic U scintillation cocktail, and radioactivity (^3H) was detected on a β-RAM Model 5 system (IN/US, LabLogic) (Fig. S24). Product formation was assessed as the relative contribution of each peak (in CPM) to the summed peak area of substrate and product(s).
The single-turnover experiments were performed using a KinTek rapid quench-flow apparatus (KinTek). This machine functions by forcing equal volumes (∼19 μl) of two separate solutions into a central mixing chamber, where the components are allowed to incubate for a predetermined period of time before an excess volume of quench solution (∼160 μl) stops the reaction and expels the mixture from the apparatus. […] After the predetermined incubation period, the reaction (37 °C) was quenched with HCl (1 M), and the mixture (∼200 μl) was collected into vials. The products of five identical reactions (time points) were combined and were extracted into CH2Cl2 (5 ml). An aliquot (4 ml) of the lower (organic) layer was removed into a fresh vial, and the extraction was repeated to maximize sample recovery. The pooled organic fraction (∼8 ml) was brought to dryness under a stream of N2 gas, and the residue was redissolved in 60 μl of CH3OH and transferred to LC vials for analysis.

human P450 51A1 [3] = experiment: Kinetic modeling (KinTek Explorer) of the single-turnover time course; settings: for k^+ of sterol binding to P450 51A1 (kon) used for fitting: all kon set at this value; for k^- of oxidation step of the P450-sterol complex: irreversible, set to zero; for k^+ of oxidation step of the P450-sterol complex: label = sterol oxidized in the step
Description: The initial koff rate constants used in fitting were the koff rates measured in the stopped-flow trap experiments (Fig. 9). All three oxidation reactions are irreversible, and thus k-2, k-4, and k-6 were set to zero.
Data were imported into KinTek Explorer software (v. 11.01, KinTek, https://kintekcorp.com/software) ([63], [64]) as txt files and processed using an Apple computer (operating system 11.6.2).

[4] = time 0.05 s, start 7 µM dihydrolanosterol

| Structure (SMILES) | kcat relative to dihydrolanosterol (human P450 51A1 [1]) | kcat/Km relative to dihydrolanosterol (human P450 51A1 [1]) | concentration in single-turnover reaction (human P450 51A1 [2]; [4]) [µM] | concentration in single-turnover reaction (human P450 51A1 [2]; time 0.1 s) [µM] | concentration in single-turnover reaction (human P450 51A1 [2]; time 0.15 s) [µM] | concentration in single-turnover reaction (human P450 51A1 [2]; time 0.2 s) [µM] | concentration in single-turnover reaction (human P450 51A1 [2]; time 0.3 s) [µM] | concentration in single-turnover reaction (human P450 51A1 [2]; time 0.4 s) [µM] | concentration in single-turnover reaction (human P450 51A1 [2]; time 0.6 s) [µM] | concentration in single-turnover reaction (human P450 51A1 [2]; time 0.8 s) [µM] | concentration in single-turnover reaction (human P450 51A1 [2]; time 1 s) [µM] | concentration in single-turnover reaction (human P450 51A1 [2]; time 1.2 s) [µM] | concentration in single-turnover reaction (human P450 51A1 [2]; time 1.6 s) [µM] | concentration in single-turnover reaction (human P450 51A1 [2]; time 2 s) [µM] | concentration in single-turnover reaction (human P450 51A1 [2]; time 3 s) [µM] | concentration in single-turnover reaction (human P450 51A1 [2]; time 4 s) [µM] | concentration in single-turnover reaction (human P450 51A1 [2]; time 7 s) [µM] | k^+ of sterol binding to P450 51A1 (kon) used for fitting (human P450 51A1 [3]) [M⁻¹ s⁻¹] | k^- of oxidation step of the P450-sterol complex (human P450 51A1 [3]) | k^+ of oxidation step of the P450-sterol complex (human P450 51A1 [3]; optimized model) [s⁻¹] | other results |
| --- | --- | --- | --- | --- | --- | --- | --- | --- | --- | --- | --- | --- | --- | --- | --- | --- | --- | --- | --- | --- | --- |
| CC(C)CCCC(C)[C@H]1CC[C@@]2(CO)C3=C(CC[C@]12C)[C@@]1(C)CC[C@H](O)C(C)(C)C1CC3 (stereo partly drawn) [14α-CH2OH dihydrolanosterol, 24,25-dihydro-14α-CH2OH lanosterol] | ~1.5 fold | ~1.5 fold | 2.2428 | 3.1584 | 2.7482 | 2.961 | 2.3331 | 1.9978 | 1.1711 | 0.9849 | 0.4431 | 0 | 0 | 0 | 0 | 0 | 0 | 2e+06 | 0 | 3.5 | Rate of FF-MAS formation (replicates) (human P450 51A1 [1]; substrate 0.25 µM, listed as 14-CH2OH dihydrolanosterol): 1.4 min-1 (2×) and 1.5 min-1; Rate of FF-MAS formation (replicates) (human P450 51A1 [1]; substrate 0.50 µM, listed as 14-CH2OH dihydrolanosterol): 3.1 min-1 and 3.0 min-1 (2×); Rate of FF-MAS formation (replicates) (human P450 51A1 [1]; substrate 0.75 µM, listed as 14-CH2OH dihydrolanosterol): 4.7 min⁻¹ and 4.5 min⁻¹ and 3.9 min⁻¹; Rate of FF-MAS formation (replicates) (human P450 51A1 [1]; substrate 1.00 µM, listed as 14-CH2OH dihydrolanosterol): 6.5 min-1 (2×) and 7.1 min-1; Rate of FF-MAS formation (replicates) (human P450 51A1 [1]; substrate 1.50 µM, listed as 14-CH2OH dihydrolanosterol): 8.9 min⁻¹ and 8.6 min⁻¹ and 11.1 min⁻¹; Rate of FF-MAS formation (replicates) (human P450 51A1 [1]; substrate 2.50 µM, listed as 14-CH2OH dihydrolanosterol): 16.2 min⁻¹ and 16.4 min⁻¹ and 16.5 min⁻¹; Rate of FF-MAS formation (replicates) (human P450 51A1 [1]; substrate 5.00 µM, listed as 14-CH2OH dihydrolanosterol): 25.1 min⁻¹ and 20.7 min⁻¹ and 25.9 min⁻¹; Rate of FF-MAS formation (replicates) (human P450 51A1 [1]; substrate 7.50 µM, listed as 14-CH2OH dihydrolanosterol): 25.1 min⁻¹ and 26.3 min⁻¹ and 27.2 min⁻¹; Rate of FF-MAS formation (replicates) (human P450 51A1 [1]; substrate 10.00 µM, listed as 14-CH2OH dihydrolanosterol): 26.4 min⁻¹ and 27.4 min⁻¹ and 26.6 min⁻¹; Rate of FF-MAS formation (replicates) (human P450 51A1 [1]; substrate 15.00 µM, listed as 14-CH2OH dihydrolanosterol): 29.2 min⁻¹ and 33.0 min⁻¹ and 31.0 min⁻¹; k^- of sterol binding to P450 51A1 (koff) used for fitting (human P450 51A1 [3]; optimized model): 0.040 s⁻¹ |
| CC(C)CCCC(C)[C@H]1CC[C@@]2(C=O)C3=C(CC[C@]12C)[C@@]1(C)CC[C@H](O)C(C)(C)C1CC3 (stereo partly drawn) [14α-CHO dihydrolanosterol, 24,25-dihydro-14α-formyl lanosterol] | about 3 fold | about 3 fold | 0 | 0.8505 | 1.1396 | 1.6401 | 1.848 | 1.8837 | 1.7976 | 1.4126 | 1.4476 | 1.3349 | 0.8218 | 0.7105 | 0 | 0 | 0 | 2e+06 | 0 | 2.5 | Rate of FF-MAS formation (replicates) (human P450 51A1 [1]; substrate 0.25 µM, listed as 14-CHO dihydrolanosterol): 2.969 min⁻¹ and 3.528 min⁻¹ and 3.126 min⁻¹; Rate of FF-MAS formation (replicates) (human P450 51A1 [1]; substrate 0.50 µM, listed as 14-CHO dihydrolanosterol): 7.815 min⁻¹ and 6.139 min⁻¹ and 6.658 min⁻¹; Rate of FF-MAS formation (replicates) (human P450 51A1 [1]; substrate 0.75 µM, listed as 14-CHO dihydrolanosterol): 11.25 min⁻¹ and 9.099 min⁻¹ and 10.0823 min⁻¹; Rate of FF-MAS formation (replicates) (human P450 51A1 [1]; substrate 1.00 µM, listed as 14-CHO dihydrolanosterol): 13.4 min⁻¹ and 13.67 min⁻¹ and 13.3 min⁻¹; Rate of FF-MAS formation (replicates) (human P450 51A1 [1]; substrate 1.50 µM, listed as 14-CHO dihydrolanosterol): 18.85 min⁻¹ and 19.74 min⁻¹ and 19.25 min⁻¹; Rate of FF-MAS formation (replicates) (human P450 51A1 [1]; substrate 2.50 µM, listed as 14-CHO dihydrolanosterol): 28.46 min⁻¹ and 30.67 min⁻¹ and 32.21 min⁻¹; Rate of FF-MAS formation (replicates) (human P450 51A1 [1]; substrate 5.00 µM, listed as 14-CHO dihydrolanosterol): 52.7446 min⁻¹ and 50.4 min⁻¹ and 54.73 min⁻¹; Rate of FF-MAS formation (replicates) (human P450 51A1 [1]; substrate 7.50 µM, listed as 14-CHO dihydrolanosterol): 65.76 min⁻¹ and 62.41 min⁻¹ and 66.11 min⁻¹; Rate of FF-MAS formation (replicates) (human P450 51A1 [1]; substrate 10.00 µM, listed as 14-CHO dihydrolanosterol): 70.12 min⁻¹ and 63.34 min⁻¹ and 67.78 min⁻¹; Rate of FF-MAS formation (replicates) (human P450 51A1 [1]; substrate 15.00 µM, listed as 14-CHO dihydrolanosterol): 72.18 min⁻¹ and 76.97 min⁻¹ and 69.96 min⁻¹ |
